Laboratory results as given in ChEMBL document CHEMBL5042504 (J Med Chem, 2022).
Calls of active or inactive are those of the source. The calls are words filed in the database; no cut-off is given here.

Columns and labels:
[1] = molecular target: T1, Protein deacetylase HDAC6 (Homo sapiens, UniProt Q9UBN7); experiment: Inhibition of human recombinant HDAC6 using Boc-Lys(acetyl)-AMC substrate incubated for 2 hrs by fluorescence based assay
T1 sequence (Q9UBN7 whole entry): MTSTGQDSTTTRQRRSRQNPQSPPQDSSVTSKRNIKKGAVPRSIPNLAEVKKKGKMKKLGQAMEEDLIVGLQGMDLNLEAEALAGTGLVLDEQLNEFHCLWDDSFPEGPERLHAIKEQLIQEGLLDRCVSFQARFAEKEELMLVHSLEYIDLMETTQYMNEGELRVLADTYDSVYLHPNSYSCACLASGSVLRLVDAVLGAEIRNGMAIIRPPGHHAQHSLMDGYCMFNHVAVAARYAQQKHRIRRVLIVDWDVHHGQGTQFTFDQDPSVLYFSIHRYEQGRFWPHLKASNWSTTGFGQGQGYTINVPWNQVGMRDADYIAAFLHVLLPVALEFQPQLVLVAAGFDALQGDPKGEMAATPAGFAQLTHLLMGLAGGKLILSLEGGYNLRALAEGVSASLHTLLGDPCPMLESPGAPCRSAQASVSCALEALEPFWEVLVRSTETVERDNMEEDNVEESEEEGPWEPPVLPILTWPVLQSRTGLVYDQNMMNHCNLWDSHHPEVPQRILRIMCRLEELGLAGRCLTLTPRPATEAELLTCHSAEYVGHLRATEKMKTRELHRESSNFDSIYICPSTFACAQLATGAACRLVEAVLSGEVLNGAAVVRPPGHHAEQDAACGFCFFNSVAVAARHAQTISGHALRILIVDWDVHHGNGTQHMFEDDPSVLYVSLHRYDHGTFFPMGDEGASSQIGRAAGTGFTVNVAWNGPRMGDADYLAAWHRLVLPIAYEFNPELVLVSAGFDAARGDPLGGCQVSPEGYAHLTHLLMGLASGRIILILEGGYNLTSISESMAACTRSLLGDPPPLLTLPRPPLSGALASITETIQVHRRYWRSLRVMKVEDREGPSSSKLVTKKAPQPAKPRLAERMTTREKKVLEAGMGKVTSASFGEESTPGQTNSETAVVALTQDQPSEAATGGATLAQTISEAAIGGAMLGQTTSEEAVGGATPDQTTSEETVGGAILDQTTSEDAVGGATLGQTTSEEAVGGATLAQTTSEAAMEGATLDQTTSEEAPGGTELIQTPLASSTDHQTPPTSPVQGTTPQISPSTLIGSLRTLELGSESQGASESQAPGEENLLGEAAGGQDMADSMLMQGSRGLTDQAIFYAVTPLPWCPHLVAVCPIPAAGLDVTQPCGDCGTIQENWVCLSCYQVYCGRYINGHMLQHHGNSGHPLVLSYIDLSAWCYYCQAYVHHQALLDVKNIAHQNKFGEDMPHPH

[2] = molecular target: T2, Polyamine deacetylase HDAC10 (Homo sapiens, UniProt Q969S8); experiment: Inhibition of human recombinant HDAC10 using Boc-Lys(triflouroacetyI)-AMC substrate incubated for 2 hrs by fluorescence based assay
T2 sequence (Q969S8 whole entry): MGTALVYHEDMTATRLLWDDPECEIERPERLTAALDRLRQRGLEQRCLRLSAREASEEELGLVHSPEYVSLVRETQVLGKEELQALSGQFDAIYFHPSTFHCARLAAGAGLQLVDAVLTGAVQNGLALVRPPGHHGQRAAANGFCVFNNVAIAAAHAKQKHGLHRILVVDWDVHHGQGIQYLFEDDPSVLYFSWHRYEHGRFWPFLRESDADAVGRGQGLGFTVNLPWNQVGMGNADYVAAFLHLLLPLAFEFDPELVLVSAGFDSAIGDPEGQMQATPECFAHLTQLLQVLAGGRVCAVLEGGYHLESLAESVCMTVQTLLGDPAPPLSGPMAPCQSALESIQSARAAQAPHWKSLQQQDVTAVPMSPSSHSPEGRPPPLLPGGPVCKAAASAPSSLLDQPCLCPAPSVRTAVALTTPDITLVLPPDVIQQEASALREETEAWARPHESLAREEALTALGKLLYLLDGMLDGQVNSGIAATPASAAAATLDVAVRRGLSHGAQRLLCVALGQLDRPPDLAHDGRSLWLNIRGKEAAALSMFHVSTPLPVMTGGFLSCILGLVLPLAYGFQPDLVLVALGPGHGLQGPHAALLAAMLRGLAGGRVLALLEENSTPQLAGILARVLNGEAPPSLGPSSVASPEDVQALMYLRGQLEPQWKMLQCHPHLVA

[3] = Cmax in CD-1 mouse at 5 mg/kg, iv measured upto 24 hrs; format: ADME, organism-based; design: route intravenous, dose 5 mg/kg, time <=24; settings: in vivo
[4] = AUC (0 to infinity) in CD-1 mouse at 5 mg/kg, iv measured upto 24 hrs; format: ADME, organism-based; design: route intravenous, dose 5 mg/kg, time <=24; settings: in vivo
MV4-11 [5] = experiment: Cell cycle arrest in human wt-p53 MV4-11 cells assessed as accumulation at G2/M-phase at 200 nM measured after 24 hrs realtive to control; format: functional, cell-based
MV4-11 [6] = experiment: Induction of apoptosis in human wt-p53 MV4-11 cells assessed as apoptotic cells at 200 nM measured after 24 hrs by FITC Annexin V/propidium iodide staining based flow cytometry (reference value: 9.14%); format: functional
HL-60 = experiment: Cell cycle arrest in human […] HL60 cells assessed as accumulation at G2/M-phase at 200 nM measured after 24 hrs realtive to control; format: functional, cell-based
[7] = Drug uptake in BALB/c mouse xenografted with human AML MV4-11 cells assessed as tumor tissue at 4 mg/kg ip measured after 0.5 to 6 hrs by LC-MS/MS; format: ADME, organism-based; settings: in vivo, time 0.5-6 hrs
MV4-11 [8] = experiment: Antitumor activity against human MV4-11 cells xenografted in balb/c mouse assessed as accumulation of AcHH4 protein level at 4 mg/kg, po measured after 2 hrs; format: functional, organism-based
MV4-11 [9] = experiment: Antitumor activity against human MV4-11 cells xenografted in balb/c mouse assessed as accumulation of AcHH4 protein level at 4 mg/kg, po measured after 8 hrs; format: functional, organism-based
MV4-11 [10] = experiment: Antitumor activity against human MV4-11 cells xenografted in balb/c mouse assessed as accumulation of AcHH3 protein level at 4 mg/kg, po measured after 8 hrs; format: functional, organism-based
[11] = Drug distribution in BALB/c mouse kidney measured at 4 mg/kg, po or ip after 0.5 hrs after 0.5 hrs; format: ADME, organism-based; settings: in vivo
[12] = Drug distribution in BALB/c mouse brain measured at 4 mg/kg, po or ip after 0.5 hrs after 0.5 hrs; format: ADME, organism-based; settings: in vivo
[13] = Drug distribution in BALB/c mouse liver measured at 4 mg/kg, po or ip after 2 to 8 hrs after 0.5 hrs; format: ADME, organism-based; settings: in vivo, time 2-8 hrs
[14] = Drug distribution in BALB/c mouse heart measured at 4 mg/kg, po or ip after 2 to 8 hrs after 0.5 hrs; format: ADME, organism-based; settings: in vivo, time 2-8 hrs
[15] = Drug distribution in BALB/c mouse brain measured at 4 mg/kg, po or ip after 2 to 8 hrs after 0.5 hrs; format: ADME, organism-based; settings: in vivo, time 2-8 hrs
[16] = Drug metabolism in BALB/c mouse liver assessed as metabolized compound; format: ADME, tissue-based
[17] = Toxicity in BALB/c mouse xenografted with MV4-11 cells assessed as body weight loss

Row | IC50 [1] [µM] | IC50 [2] [µM] | Cmax [3] [ng/mL] | AUC [4] [ng·h/mL] | Drug uptake [7] | Drug uptake [11] | Drug uptake [12] | Drug uptake [13] | Drug uptake [14] | Drug uptake [15] | Drug metabolism [16] | SMILES | Activity (MV4-11 [5]) | Activity (MV4-11 [6]) [%] | Activity (HL-60) | Activity (MV4-11 [8]) | Activity (MV4-11 [9]) | Activity (MV4-11 [10]) | Activity [17]
1 | > 10 | > 5 | – | – | – | – | – | – | – | – | – | CCCNNC(=O)c1ccc(CNC(=O)/C=C/c2ccccc2)cc1 | – | – | – | – | – | – | –
2 | > 10 | > 5 | 21600 | 32179 | Active | Active | Active | Active | Active | Active | Metabolite_Detected | CCCNNC(=O)c1ccc(CNC(=O)c2cc3ccccc3[nH]2)cc1 | Active | 71.2 | Active | Active | Active | Active | Non-Toxic
